Patent US7074777B2, “Vitamin D derivatives” (Chugai Seiyaku Kabushiki Kaisha, priority 2000, dated 2006)

How the values were obtained:
[1] = Test Example 1: ionized calcium level in blood after single percutaneous application to dorsal skin of mice (ion selective electrode method); assay type: in vivo; conditions: Balb/c mice, dosage 1000 μg/kg, blood drawn two days after application, mean of 3 mice
Protocol: Active vitamin D3 (1α,25 (OH)2vitamin D3) dissolved in ethanol at the concentration of 125 μg/ml, Compounds 1 to 13 (the vitamin D derivatives obtained in the above Examples) dissolved in ethanol at the concentration of 500 μg/ml and ethanol alone (as control) were percutaneously applied once to the dorsal skin of respective 8-week-old male Balb/c mice (approximately 1.5×2.0 cm^2). The dosage was 2 ml/kg and each mouse received a necklace to prevent ingestion. On the next day, the application areas were cleaned and necklaces were removed from the mice. Two days after the application, blood was drawn from each mouse in order to measure the ionized calcium level in the blood by an ion selective electrode method. In this experiment, each group contained 3 mice. The ionized calcium levels in the Table indicate the mean values.

[2] = tested on: Keratinocytes derived from human neonatal foreskin; experiment: Test Example 2: inhibition of human keratinocyte proliferation ([3H] thymidine uptake); assay type: cell-based; conditions: relative value = [IC50 (mol/l) of 1α,25(OH)2vitamin D3]/[IC50 (mol/l) of each Compound]
Protocol: Keratinocytes derived from human neonatal foreskin (Clonetics) were inoculated in 96 well-plates (COSTAR 3595) at 2×10^3 cells/well. Active vitamin D3 (1α,25(OH)2D3) and Compounds 1 to 13 at various concentrations were added to respective wells and cultured at 2×10^3 cells/200 μl/well in KGM-2 medium for 3 days at 37° C. in 5% CO2 and 95% air. After adding [^3H] thymidine at 7.4 kBq/well, the cell culture was continued for further 1 day. After washing the wells with phosphate buffer free of calcium and magnesium (Dulbecco PBS(−), NISSUI, code 05913, pH 7.3 to 7.65) once, the cells were stripped using 0.25% […]. The [^3H] thymidine uptake of the cells was measured by a liquid scintillation counter (1450 microbeta, WALLAC). In the Table, the inhibition of human keratinocyte proliferation is expressed as follows: the relative value of each Compound with respect to active vitamin D3=[IC50 (mol/l) of 1α,25(OH)2vitamin D3]/[IC50 (mol/l) of each Compound]

Compound | Ionized Ca level [1] [mmol/L] | Human keratinocyte proliferation inhibition (relative value) [2]
C=C1C(=CC=C2CCCC3(C)C(COCCC(C)(C)O)=CCC23)CC(O)CC1O (stereo not drawn) [Compound 1, 1α,3β-dihydroxy-17-(3-hydroxy-3-methylbutoxymethyl)-9,10-secoandrosta-5,7,10(19),16-tetraene] | 1.52 | 0.6
C=C1C(=CC=C2CCCC3(C)C(COCCCCC(C)(C)O)=CCC23)CC(O)CC1O (stereo not drawn) [Compound 3, 1α,3β-dihydroxy-17-(5-hydroxy-5-methylhexyloxymethyl)-9,10-secoandrosta-5,7,10(19),16-tetraene] | 1.81 | 1.2
1α, 25(OH)2D3 |  | 1.0
C=C1C(=CC=C2CCCC3(C)C(COCCCC(O)(CC)CC)=CCC23)CC(O)CC1O (stereo not drawn) [Compound 2, 17-(4-ethyl-4-hydroxyhexyloxymethyl)-1α,3β-dihydroxy-9,10-secoandrosta-5,7,10(19),16-tetraene] | 2.12 | 1.9
C=C1C(=CC=C2CCCC3(C)C(COCCCC(C)(C)O)=CCC23)CC(O)CC1O (stereo not drawn) [Compound 4, 1α,3β-dihydroxy-17-(4-hydroxy-4-methylpentyloxymethyl)-9,10-secoandrosta-5,7,10(19),16-tetraene] | 1.68 | 0.7
C=C1C(=CC=C2CCCC3(C)C(COCC#CC(C)(C)O)=CCC23)CC(O)CC1O (stereo not drawn) [Compound 5, 1α,3β-dihydroxy-17-(4-hydroxy-4-methyl-2-pentynyloxymethyl)-9,10-secoandrosta-5,7,10(19),16-tetraene] | 1.63 | 1.8
